These results are taken from patent US11040028B2, “Penicinotam derivative, preparation method and use thereof” (OCEAN UNIVERSITY OF CHINA, priority 2017, dated 2021).

Holding throughout (format): cell-based
Experiment [1] concerns cardiac fibroblast RAT-iCell-C002. Briefly: Anti-fibrosis activity test: inhibition of proliferation of cardiac fibroblast RAT-iCell-C002 (CCK-8). To be noted: Cardiac fibroblast, 48 h, cardiac fibroblast RAT-iCell-C002, CCK-8, 48 hours. In short, it runs like this: (§1)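 Proliferation read by CCK-8 (2 h, A450) after 48 h compound treatment of cells plated at 2×10^4 cells/mL and allowed 24 h attachment, triplicate per concentration. Inhibition rate derived from absorbance relative to untreated blank, with IC50 fitted; pirfenidone as positive control.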

Experiment [2] has as its system human hepatic stellate cells LX-2. Kind of experiment: Anti-fibrosis activity test: inhibition of proliferation of human hepatic stellate cells LX-2 (CCK-8). The conditions noted are these: Homo sapiens, 48 h, human hepatic stellate cells LX-2, CCK-8, 48 hours. Put shortly: as §1
A further experiment has as its system BHK-21 cells. Kind of experiment: Anti-fibrosis activity test: inhibition of BHK-21 cell proliferation (CCK-8). To be noted: Mesocricetus auratus, BHK-21, 48 h, CCK-8, 48 hours after administration. Put shortly:
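Cells plated 2×10^4 cells/mL; 24 h attach; compound dilutions, triplicate, 48 h, 37° C/5% CO2; CCK-8 2 h; A450; IR = (1−Ai/Ao)×100%; IC50 by curve fit.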

The subject of experiment [3] is human dermal fibroblasts CCC-ESF-1. Kind of experiment: Anti-fibrosis activity test: inhibition of proliferation of human dermal fibroblasts CCC-ESF-1 (CCK-8). To be noted: Fibroblast; human dermal fibroblasts CCC-ESF-1, CCK-8, 48 hours. In short, it runs like this: as §1
Experiment [4] concerns human lung fibroblasts HFL1. Briefly: Anti-fibrosis activity test: inhibition of proliferation of human lung fibroblasts HFL1 (CCK-8). The conditions noted are these: Homo sapiens, HFL1, 48 h, human lung fibroblasts HFL1, CCK-8, 48 hours. In short, it runs like this: as §1
Experiment [5] has as its system mouse macrophages (RAW264.7). Kind of experiment: Lipopolysaccharide-induced NO secretion in macrophages (Griess). The conditions noted are these: Mus musculus, RAW264.7, 24 h, RAW264.7, LPS 1 μg/ml, a/b isomers given as first/second symbol, read-out: IC50 (μM), inhibition of lipopolysaccharide-induced NO secretion in macrophages. Put shortly: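 Percent inhibition of NO release was measured by Griess absorbance at 548 nm in supernatants. Cells were mouse RAW264.7 macrophages in 10% FBS DMEM, treated with graded compound concentrations and activated by LPS (1 μg/ml) for 24 h.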
(The Griess reaction detects nitrite, a stable product of nitric oxide.)

Experiment [6] has as its system human embryonic lung fibroblast IMR-90. Briefly: Anti-fibrosis activity test: inhibition of proliferation of human embryonic lung fibroblast IMR-90 (CCK-8). The conditions noted are these: human embryonic lung fibroblast IMR-90, CCK-8, 48 hours. Put shortly: as §1
In experiment [7] the test system is human fibrosarcoma cells HT-1080. Briefly: Anti-fibrosis activity test: inhibition of proliferation of human fibrosarcoma cells HT-1080 (CCK-8). To be noted: Homo sapiens, HT-1080, 48 h, human fibrosarcoma cells HT-1080, CCK-8, 48 hours. Put shortly:
as §1

What is called IC50 is the concentration at which inhibition is half-maximal. As for `N#Cc1cccc2nc3c(c(OCc4cccc(F)c4)c12)C(=O)n1cccc1-3` [Compound 463b, 9-((3-fluorobenzyl)oxy)-10-oxo-10H-pyrrolizino[1,2-b]quinoline-8-carbonitrile], the concentration for half-maximal inhibition (IC50) in experiment [1] was 0.05 to 5 mM; in experiment [2], 0.05 to 5 mM; with BHK-21 cells it was 0.05 to 5 mM; in experiment [3] it was 0.05 to 5 mM; in experiment [4] it was 0.05 to 5 mM; in experiment [5] it was 1 to 10 µM. In addition, the IC50 in experiment [6] and in experiment [7] was 0.05 to 5 mM throughout.
Regarding `O=C1c2c(n(Cc3ccc(Cl)cc3)c3cccc(C(F)(F)F)c3c2=O)-c2cccn21` [Compound 465a, 4-(4-Chlorobenzyl)-8-(trifluoromethyl)-9H-pyrrolizino[1,2-b]quinoline-9,10(4H)-dione], the IC50 in experiment [1] is 0.05 to 5 mM; in experiment [2], 0.05 to 5 mM; in the experiment on BHK-21 cells, 0.05 to 5 mM; in experiment [3], 0.05 to 5 mM; in experiment [4] it was 0.05 to 5 mM; in experiment [5], 0.1 to 1 µM. Also, the IC50 in experiment [6] and in experiment [7] was 0.05 to 5 mM throughout.
Consider `O=C1c2c(nc3cccc(C(F)(F)F)c3c2OCc2ccc(Cl)cc2)-c2cccn21` [Compound 465b, 9-((4-chlorobenzyl)oxy)-8-(trifluoromethyl)-10H-pyrrolizino[1,2-b]quinolin-10-one], for which the IC50 in experiment [1] was 0.05 to 5 mM; in experiment [2], 0.05 to 5 mM; in the experiment with BHK-21 cells, 0.05 to 5 mM; in experiment [3], 0.05 to 5 mM; in experiment [4], 0.05 to 5 mM; in experiment [5], 10 to 50 µM. In addition, the concentration for half-maximal inhibition (IC50) in experiment [6] and in experiment [7] was 0.05 to 5 mM in each case.
As to `O=C1c2c(n(Cc3cccc(Cl)c3)c3cccc(C(F)(F)F)c3c2=O)-c2cccn21` [Compound 466a, 4-(3-Chlorobenzyl)-8-(trifluoromethyl)-9H-pyrrolizino[1,2-b]quinoline-9,10(4H)-dione], the IC50 is 0.05 to 5 mM in experiment [1]; less than 0.05 mM in experiment [2]; 0.05 to 5 mM with BHK-21 cells; 0.05 to 5 mM in experiment [3]; 0.05 to 5 mM in experiment [4]; 1 to 10 µM in experiment [5]. The IC50 in experiment [6] and in experiment [7] was 0.05 to 5 mM throughout.
With `O=C1c2c(nc3cccc(C(F)(F)F)c3c2OCc2cccc(Cl)c2)-c2cccn21` [Compound 466b, 9-((3-chlorobenzyl)oxy)-8-(trifluoromethyl)-10H-pyrrolizino[1,2-b]quinolin-10-one], the concentration for half-maximal inhibition (IC50) lay within 0.05 to 5 mM in experiment [1]; 0.05 to 5 mM in experiment [2]; 0.05 to 5 mM with BHK-21 cells; 0.05 to 5 mM in experiment [3]; 0.05 to 5 mM in experiment [4]; 1 to 10 µM in experiment [5]. Further, the 50% inhibitory concentration (IC50) in experiment [6] and in experiment [7] was 0.05 to 5 mM throughout.
For the molecule `O=C1c2c([nH]c3cccc(F)c3c2=O)-c2cccn21` [Compound 467a, 8-Fluoro-9H-pyrrolizino[1,2-b]quinoline-9,10(4H)-dione], the half-inhibitory concentration (IC50) is 0.05 to 5 mM in experiment [1]; 0.05 to 5 mM in experiment [2]; less than 0.05 mM in the experiment with BHK-21 cells; 0.05 to 5 mM in experiment [3]; 0.05 to 5 mM in experiment [4]; 1 to 10 µM in experiment [5]. For the same molecule, the half-maximal inhibitory concentration (IC50) in experiment [6] and in experiment [7] was 0.05 to 5 mM throughout.
Consider `O=C1c2c(nc3cccc(F)c3c2O)-c2cccn21` [Compound 467b, 8-fluoro-9-hydroxy-10H-pyrrolizino[1,2-b]quinolin-10-one], for which the IC50 in experiment [1] was 0.05 to 5 mM; in experiment [2], 0.05 to 5 mM; in the experiment with BHK-21 cells, 0.05 to 5 mM; in experiment [3], 0.05 to 5 mM; in experiment [4] it was 0.05 to 5 mM; in experiment [5], 1 to 10 µM. Further, the IC50 in experiment [6] and in experiment [7] was 0.05 to 5 mM in each case.
As for `N#Cc1cccc2c1c(=O)c1c(n2Cc2ccccc2F)-c2cccn2C1=O` [Compound 469a, 4-(2-Fluorobenzyl)-9,10-dioxo-4,10-dihydro-9H-pyrrolizino[1,2-b]quinoline-8-carbonitrile], the IC50 in experiment [1] was 0.05 to 5 mM; in experiment [2], 0.05 to 5 mM; in the experiment on BHK-21 cells it was less than 0.05 mM; in experiment [3], 0.05 to 5 mM; in experiment [4], 0.05 to 5 mM; in experiment [5], 0.1 to 1 µM. In addition, the IC50 in experiment [6] lay in the range of 0.05 to 5 mM; in experiment [7] it was 5 to 20 mM.
`N#Cc1cccc2nc3c(c(OCc4ccccc4F)c12)C(=O)n1cccc1-3` [Compound 469b, 9-((2-fluorobenzyl)oxy)-10-oxo-10H-pyrrolizino[1,2-b]quinoline-8-carbonitrile]: the IC50 in experiment [1] fell in the range of 0.05 to 5 mM; in experiment [2], 0.05 to 5 mM; in the experiment on BHK-21 cells it was 0.05 to 5 mM; in experiment [3], 0.05 to 5 mM; in experiment [4] it was 0.05 to 5 mM; in experiment [5] it was 10 to 50 µM. Besides, the IC50 in experiment [6] and in experiment [7] was 0.05 to 5 mM in each case.
Consider `O=C1c2c([nH]c3cccc(O)c3c2=O)-c2cccn21` [Compound 470a, 8-Hydroxy-9H-pyrrolizino[1,2-b]quinoline-9,10(4H)-dione], for which the IC50 in experiment [1] was 0.05 to 5 mM; in experiment [2], 0.05 to 5 mM; in the experiment with BHK-21 cells, 0.05 to 5 mM; in experiment [3] it was 0.05 to 5 mM; in experiment [4], 0.05 to 5 mM; in experiment [5], 0.1 to 1 µM. For the same molecule, the IC50 in experiment [6] and in experiment [7] was 0.05 to 5 mM throughout.
Turning to `O=C1c2c(nc3cccc(O)c3c2O)-c2cccn21` [Compound 470b, 8,9-dihydroxy-10H-pyrrolizino[1,2-b]quinolin-10-one], the IC50 in experiment [1] was in the range of 0.05 to 5 mM; in experiment [2], 0.05 to 5 mM; in the experiment with BHK-21 cells, 0.05 to 5 mM; in experiment [3] it was 0.05 to 5 mM; in experiment [4], 0.05 to 5 mM; in experiment [5], 1 to 10 µM. Moreover, the IC50 in experiment [6] and in experiment [7] was 0.05 to 5 mM in each case.
With `O=C1c2c(n(Cc3ccc(Cl)cc3)c3cccc(F)c3c2=O)-c2cccn21` [Compound 471a, 4-(4-Chlorobenzyl)-8-fluoro-9H-pyrrolizino[1,2-b]quinoline-9,10(4H)-dione], the IC50 was 0.05 to 5 mM in experiment [1]; less than 0.05 mM in experiment [2]; 0.05 to 5 mM in the experiment with BHK-21 cells; 0.05 to 5 mM in experiment [3]; 0.05 to 5 mM in experiment [4]; 0.1 to 1 µM in experiment [5]. Also, the IC50 in experiment [6] and in experiment [7] was 0.05 to 5 mM each time.
For the molecule `O=C1c2c(nc3cccc(F)c3c2OCc2ccc(Cl)cc2)-c2cccn21` [Compound 471b, 9-((4-chlorobenzyl)oxy)-8-fluoro-10H-pyrrolizino[1,2-b]quinolin-10-one], the concentration for half-maximal inhibition (IC50) in experiment [1] fell in the range of 0.05 to 5 mM; in experiment [2] it was 0.05 to 5 mM; in the experiment with BHK-21 cells, 0.05 to 5 mM; in experiment [3] it was 0.05 to 5 mM; in experiment [4], 0.05 to 5 mM; in experiment [5], 1 to 10 µM. Further, the IC50 in experiment [6] and in experiment [7] was 0.05 to 5 mM throughout.
Take `O=C1c2c(n(Cc3ccccc3Cl)c3cccc(C(F)(F)F)c3c2=O)-c2cccn21` [Compound 472a, 4-(2-Chlorobenzyl)-8-(trifluoromethyl)-9H-pyrrolizino[1,2-b]quinoline-9,10(4H)-dione]: the IC50 in experiment [1] is 0.05 to 5 mM; in experiment [2], 0.05 to 5 mM; in the experiment with BHK-21 cells it was less than 0.05 mM; in experiment [3], 0.05 to 5 mM; in experiment [4], 0.05 to 5 mM; in experiment [5], 1 to 10 µM. Besides, the IC50 in experiment [6] and in experiment [7] was 0.05 to 5 mM in each case.
In the case of `O=C1c2c(nc3cccc(C(F)(F)F)c3c2OCc2ccccc2Cl)-c2cccn21` [Compound 472b, 9-((2-chlorobenzyl)oxy)-8-(trifluoromethyl)-10H-pyrrolizino[1,2-b]quinolin-10-one], the 50% inhibitory concentration (IC50) in experiment [1] lay in the range of 0.05 to 5 mM; in experiment [2] it was 0.05 to 5 mM; in the experiment with BHK-21 cells it was 0.05 to 5 mM; in experiment [3] it was 0.05 to 5 mM; in experiment [4], 0.05 to 5 mM; in experiment [5], 1 to 10 µM. For the same molecule, the concentration for half-maximal inhibition (IC50) in experiment [6] and in experiment [7] was 0.05 to 5 mM throughout.
With `O=C1c2c(n(Cc3ccc(F)cc3)c3cccc(Cl)c3c2=O)-c2cccn21` [Compound 474a, 8-Chloro-4-(4-fluorobenzyl)-9H-pyrrolizino[1,2-b]quinoline-9,10(4H)-dione], the IC50 is 0.05 to 5 mM in experiment [1]; 0.05 to 5 mM in experiment [2]; less than 0.05 mM in the experiment on BHK-21 cells; 0.05 to 5 mM in experiment [3]; 0.05 to 5 mM in experiment [4]; 1 to 10 µM in experiment [5]. The half-inhibitory concentration (IC50) in experiment [6] and in experiment [7] was 0.05 to 5 mM in each case.
For the molecule `O=C1c2c(nc3cccc(Cl)c3c2OCc2ccc(F)cc2)-c2cccn21` [Compound 474b, 8-chloro-9-((4-fluorobenzyl)oxy)-10H-pyrrolizino[1,2-b]quinolin-10-one], the IC50 in experiment [1] is 5 to 20 mM; in experiment [2] it was 0.05 to 5 mM; in the experiment with BHK-21 cells it was 0.05 to 5 mM; in experiment [3] it was 0.05 to 5 mM; in experiment [4] it was 0.05 to 5 mM; in experiment [5], 1 to 10 µM. The 50% inhibitory concentration (IC50) in experiment [6] and in experiment [7] was 0.05 to 5 mM in each case.
